Results reported in patent US10221144B2, “Antibacterial compounds having broad spectrum of activity” (priority 2014, dated 2019).
Where a name gives a salt, the structure may show the parent alone. Read-outs that look alike come from different tables or passages of the source.

Experiments:
Assay type in all cases: biochemical
E. coli DNA gyrase = molecular target: T1, E. coli DNA gyrase (Escherichia coli, UniProt P0AES4+P0AES6); experiment: DNA gyrase supercoiling assay (E. coli); details: for inhibition at 200 µM: conc. 200 μM; for inhibition at 50 µM: conc. 50 μM
T1 construct: purchased Inspiralis, UK
T1 sequence (P0AES4 whole entry, one chain of several): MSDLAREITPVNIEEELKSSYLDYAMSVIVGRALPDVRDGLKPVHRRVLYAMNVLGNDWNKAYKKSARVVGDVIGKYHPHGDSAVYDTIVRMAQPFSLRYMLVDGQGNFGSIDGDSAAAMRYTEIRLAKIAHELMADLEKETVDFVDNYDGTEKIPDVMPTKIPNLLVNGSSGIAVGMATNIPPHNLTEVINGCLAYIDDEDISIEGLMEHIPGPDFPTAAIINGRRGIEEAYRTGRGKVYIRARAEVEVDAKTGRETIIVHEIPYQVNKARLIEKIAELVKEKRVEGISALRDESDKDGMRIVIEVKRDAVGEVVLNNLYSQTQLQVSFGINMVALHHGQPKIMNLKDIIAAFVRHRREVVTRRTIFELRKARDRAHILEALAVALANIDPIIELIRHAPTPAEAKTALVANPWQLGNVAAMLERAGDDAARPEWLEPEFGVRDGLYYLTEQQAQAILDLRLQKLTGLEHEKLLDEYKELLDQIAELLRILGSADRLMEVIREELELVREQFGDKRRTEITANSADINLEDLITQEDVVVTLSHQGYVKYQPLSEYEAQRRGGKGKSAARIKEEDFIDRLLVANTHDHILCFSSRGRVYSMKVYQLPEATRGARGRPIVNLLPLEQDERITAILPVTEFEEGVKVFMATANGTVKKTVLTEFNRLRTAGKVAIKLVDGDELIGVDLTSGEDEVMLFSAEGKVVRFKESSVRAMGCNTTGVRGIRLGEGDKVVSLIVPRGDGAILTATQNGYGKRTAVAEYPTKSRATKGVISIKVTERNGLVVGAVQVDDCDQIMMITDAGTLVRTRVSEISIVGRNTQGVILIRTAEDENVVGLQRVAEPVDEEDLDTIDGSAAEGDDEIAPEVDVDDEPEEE
Experimental: (§1) The above compounds were tested for the inhibition of the enzyme DNA gyrase in a gyrase supercoiling assay and for the inhibition of the enzyme topoisomerase IV in a decatenation assay, in both Gram positive and Gram negative bacteria, according to the following methods.
(§2) Both the assays were carried out according to a set-up method modified from the article to Blanche F, et al. “Differential Behaviors of Staphylococcus aureus and Escherichia coli Type II DNA Topoisomerases”, Antimicrob. Agents Chemother., 1996, Vol. 40, No. 12 p. 2714-2720.
(§3) The compounds were screened at single concentration (200, 100 or 50 μM), in duplicate.
(§4) Reagents from S. aureus and E. coli Gyrase Supercoiling Assay kits (Inspiralis, UK) were used. A master mix with a total volume sufficient for the number of reactions to perform was prepared with the following reagents: 5× assay buffer, relaxed pBR322 substrate (0.5 μg/reaction), RNase-DNase free water. Aliquotes of this mix were dispensed in each tube, then 10× compound stock solutions or vehicle control (DMSO), were added to each reaction tube.
(§5) Reaction was started with E. Coli (2 U/reaction) or S. aureus (1 U/reaction) gyrase enzyme addition.
(§6) A sample added with an equal volume of dilution buffer was used as negative control (without enzyme).
(§7) The reaction tubes were gentle vortexed and incubated 30 minutes at 37° C. Each reaction was stopped by adding 30 μl of Stop Buffer and 30 μl chloroform/isoamyl alcohol (24/1), briefly vortexed for 5-10 seconds and centrifuged at 20000×g for 2 minutes. Samples were loaded onto 1% agarose gel and subjected to electrophoresis for 1 hour at 80V constant voltage in TAE (40 mM Tris-acetate, 2 mM EDTA).
(§8) Data acquisition and analysis. Treatment of relaxed pBR322 with DNA gyrase converted the relaxed topoisomers (DNAs of different linking number) to the supercoiled form of the plasmid, which migrates faster on an agarose gel. An upper band might also be visible, which consists of open-circular (nicked) DNA which is present in the relaxed substrate but co-migrates with some of the relaxed topoisomers.
(§9) Bands were visualized by ethidium bromide staining (dilution 1:20000) for 30 minutes followed by destaining in distilled water for 10 minutes.
(§10) In order to evaluate the compounds activity on the enzyme, the bands of supercoiled DNAs in the gel were photographed by a digital imaging system ImageQuant LAS 4000 (GE Healthcare) according to manufacturer's instructions.
(§11) The fluorescent intensity of each band was analyzed by ImageQuant TL software and it was expressed as volume (volume of the uncalibrated quantity of material in the image feature after subtraction of the background intensity by using rolling ball method).
(§12) Each band intensity was compared, as percentage, to vehicle sample band intensity, which served as positive control, on the same gel.
(§13) Inhibitory activity was expressed as percent of inhibition versus the positive control.
(§14) The supercoiled or decatenated DNA bands obtained as described in Example 1 were analysed as follows.
(§15) Bands were analyzed by gel documentation equipment (Syngene, Cambridge, UK) and quantitated using Syngene Gene Tools software. Raw gel data (fluorescent band volumes) collected from Syngene, GeneTools gel analysis software were converted to a percentage of the 100% control (the fully supercoiled or decatenated DNA band). […] The IC50 data were calculated by using the global curve fit non-linear regression tool by selecting the Single, 2 Parameter fit function from the Exponential Decay equation category.

E. coli Topoisomerase IV = molecular target: T2, E. coli Topoisomerase IV (Escherichia coli, UniProt P0AFI2+P20083); experiment: Topoisomerase IV decatenation assay (E. coli); details: for inhibition at 200 µM: conc. 200 μM; for inhibition at 50 µM: conc. 50 μM
T2 construct: purchased Inspiralis, UK
T2 sequence (P20083 whole entry): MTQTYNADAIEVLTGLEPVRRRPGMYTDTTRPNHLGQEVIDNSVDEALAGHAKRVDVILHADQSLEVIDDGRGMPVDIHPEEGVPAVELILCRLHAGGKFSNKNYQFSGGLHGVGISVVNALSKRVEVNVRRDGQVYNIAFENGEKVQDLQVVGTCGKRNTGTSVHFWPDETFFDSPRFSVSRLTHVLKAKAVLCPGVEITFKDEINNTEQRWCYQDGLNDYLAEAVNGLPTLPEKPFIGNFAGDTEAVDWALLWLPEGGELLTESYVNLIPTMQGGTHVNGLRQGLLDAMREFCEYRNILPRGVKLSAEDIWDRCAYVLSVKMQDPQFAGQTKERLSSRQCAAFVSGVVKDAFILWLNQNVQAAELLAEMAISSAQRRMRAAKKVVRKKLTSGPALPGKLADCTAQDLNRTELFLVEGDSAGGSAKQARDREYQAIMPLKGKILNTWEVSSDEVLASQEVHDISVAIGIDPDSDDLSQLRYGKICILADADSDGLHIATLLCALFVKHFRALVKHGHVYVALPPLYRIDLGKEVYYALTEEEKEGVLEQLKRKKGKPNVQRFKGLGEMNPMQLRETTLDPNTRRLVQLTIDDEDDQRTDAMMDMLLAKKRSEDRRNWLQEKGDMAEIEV
T2 sequence (P0AFI2 whole entry): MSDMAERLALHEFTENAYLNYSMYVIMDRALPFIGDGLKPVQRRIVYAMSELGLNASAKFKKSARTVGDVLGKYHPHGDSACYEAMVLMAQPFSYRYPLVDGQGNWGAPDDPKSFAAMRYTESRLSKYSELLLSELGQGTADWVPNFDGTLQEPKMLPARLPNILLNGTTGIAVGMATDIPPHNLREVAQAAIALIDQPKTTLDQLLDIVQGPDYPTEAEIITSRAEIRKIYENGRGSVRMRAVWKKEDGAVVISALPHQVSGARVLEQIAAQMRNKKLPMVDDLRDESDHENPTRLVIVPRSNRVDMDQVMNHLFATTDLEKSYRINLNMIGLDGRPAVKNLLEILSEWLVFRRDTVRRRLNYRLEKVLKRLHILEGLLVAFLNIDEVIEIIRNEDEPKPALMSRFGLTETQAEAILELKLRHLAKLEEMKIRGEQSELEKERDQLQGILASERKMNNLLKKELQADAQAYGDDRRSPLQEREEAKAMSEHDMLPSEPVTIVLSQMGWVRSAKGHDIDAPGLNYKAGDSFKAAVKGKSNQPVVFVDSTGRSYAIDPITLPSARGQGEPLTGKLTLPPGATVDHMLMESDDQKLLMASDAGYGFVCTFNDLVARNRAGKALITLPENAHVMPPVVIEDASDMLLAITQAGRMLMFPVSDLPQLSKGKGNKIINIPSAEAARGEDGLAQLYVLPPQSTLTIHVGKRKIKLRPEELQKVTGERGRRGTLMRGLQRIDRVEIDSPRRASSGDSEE
Experimental: as §1, §2, §3
S. aureus and E. coli Topoisomerase IV decatenation kits (Inspiralis, UK) were used. A master mix with a total volume sufficient for the number of reactions to perform was prepared with the following reagents: 5× assay buffer (50 mM HEPES-KOH (pH 7.6), 100 mM potassium glutamate, 10 mM magnesium acetate, 10 mM DTT, 1 mM ATP, 50 μg/ml albumin), kDNA substrate (200 ng/reaction), RNase-DNase free water. Aliquots of this mix were dispensed in each tube, then 10× compound stock solutions or vehicle control (DMSO), were added in each reaction tube.
Reaction was started with Topoisomerase IV enzyme (0.5 U/reaction) addition.
as §6
The reaction tubes were gentle vortexed and incubated 30 minutes at 37° C. Each reaction was stopped by adding 30 μl of Stop Buffer and 30 μl of chloroform/isoamyl alcohol (24/1), briefly vortexed for 5-10 seconds and centrifuged at 20000×g for 2 minutes. Samples taken from the upper phase were loaded into 1% agarose gel and subjected to electrophoresis for 1 hour at 80V constant voltage in TAE (40 mM Tris-acetate, 2 mM EDTA).
Data acquisition and analysis. Due to the high molecular mass, kDNA could not enter an agarose gel under normal electrophoresis conditions, but remained in the wells. In the presence of Topo IV topoisomerase mini-circles (2.5 Kb) were released from kDNA by decatenation and were quickly and easily resolved in the gel at relatively high voltages.
Bands were visualized by ethidium bromide staining (dil 1:20000) for 30 minutes followed by destaining in distilled water for 10 minutes.
For single concentration screening assay, in order to evaluate the compounds activity on the enzymes, the bands of decatenated DNAs in the gel were photographed by a digital imaging system ImageQuant LAS 4000 (GE Healthcare) according to manufacturer's instructions.
as §11, §12, §13, §14, §15

S. aureus DNA gyrase = molecular target: T3, S. aureus DNA gyrase (Staphylococcus aureus, UniProt P0A0K8+P20831); experiment: DNA gyrase supercoiling assay (S. aureus); details: for inhibition at 50 µM: conc. 50 μM
T3 construct: purchased Inspiralis, UK
T3 sequence (P0A0K8 whole entry): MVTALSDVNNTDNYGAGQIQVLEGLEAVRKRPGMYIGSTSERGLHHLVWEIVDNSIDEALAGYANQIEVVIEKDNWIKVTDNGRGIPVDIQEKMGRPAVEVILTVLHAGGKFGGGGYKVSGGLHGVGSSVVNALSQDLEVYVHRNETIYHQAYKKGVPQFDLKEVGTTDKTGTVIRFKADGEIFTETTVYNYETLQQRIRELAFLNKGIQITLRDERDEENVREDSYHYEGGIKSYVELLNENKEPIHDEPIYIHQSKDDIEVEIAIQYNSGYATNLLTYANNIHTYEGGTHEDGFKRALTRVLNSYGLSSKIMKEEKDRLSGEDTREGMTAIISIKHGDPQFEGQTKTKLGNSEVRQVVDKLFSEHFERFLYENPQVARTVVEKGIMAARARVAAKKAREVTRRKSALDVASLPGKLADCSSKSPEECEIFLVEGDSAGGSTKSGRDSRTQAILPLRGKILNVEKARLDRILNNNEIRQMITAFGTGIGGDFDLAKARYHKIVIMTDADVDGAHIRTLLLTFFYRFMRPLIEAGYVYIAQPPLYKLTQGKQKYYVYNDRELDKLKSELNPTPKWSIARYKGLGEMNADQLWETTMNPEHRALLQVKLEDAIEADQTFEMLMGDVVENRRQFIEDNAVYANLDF
T3 sequence (P20831 whole entry): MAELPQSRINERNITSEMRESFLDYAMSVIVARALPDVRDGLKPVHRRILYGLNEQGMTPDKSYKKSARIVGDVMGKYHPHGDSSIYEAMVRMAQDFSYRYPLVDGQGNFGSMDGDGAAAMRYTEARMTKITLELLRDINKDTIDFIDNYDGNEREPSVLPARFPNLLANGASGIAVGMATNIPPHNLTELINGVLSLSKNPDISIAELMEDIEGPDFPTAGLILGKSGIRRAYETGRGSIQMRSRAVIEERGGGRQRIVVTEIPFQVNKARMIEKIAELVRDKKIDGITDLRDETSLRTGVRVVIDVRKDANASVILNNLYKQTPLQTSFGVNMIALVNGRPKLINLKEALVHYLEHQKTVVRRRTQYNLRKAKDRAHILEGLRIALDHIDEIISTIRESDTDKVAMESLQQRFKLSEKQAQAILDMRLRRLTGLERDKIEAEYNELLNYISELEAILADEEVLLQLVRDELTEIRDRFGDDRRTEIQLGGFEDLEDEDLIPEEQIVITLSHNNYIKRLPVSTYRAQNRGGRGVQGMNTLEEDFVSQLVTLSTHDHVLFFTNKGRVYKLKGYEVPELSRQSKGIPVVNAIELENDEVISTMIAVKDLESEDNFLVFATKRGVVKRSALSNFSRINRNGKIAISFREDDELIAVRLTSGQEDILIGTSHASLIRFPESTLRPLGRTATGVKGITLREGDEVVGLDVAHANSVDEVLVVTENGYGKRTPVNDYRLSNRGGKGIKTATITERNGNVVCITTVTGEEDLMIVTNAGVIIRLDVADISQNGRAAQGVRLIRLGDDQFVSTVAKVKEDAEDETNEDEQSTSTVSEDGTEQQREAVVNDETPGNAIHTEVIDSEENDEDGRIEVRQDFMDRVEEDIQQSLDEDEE
Experimental: as §1, §2, §3, §4, §5, §6, §7, §8, §9, §10, §11, §12, §13, §14, §15

[1] = E. coli, n/a = not active, read-out: % inhibition Topo IV
[2] = E. coli, conc. 100 μM, n/a = not active
[3] = S. aureus, conc. 100 μM, n/a = not active

Compound	inhibition at 50 µM (E. coli DNA gyrase; E. coli, n/a = not active) [%]	inhibition at 50 µM (E. coli Topoisomerase IV; [1]) [%]	inhibition at 50 µM (S. aureus DNA gyrase; S. aureus, n/a = not active) [%]	IC50 (E. coli DNA gyrase) [µM]	IC50 (E. coli Topoisomerase IV) [µM]	IC50 (S. aureus DNA gyrase) [µM]	also measured
O=c1cc(NC2CCN(CCCc3cccc4ocnc34)CC2)c2ccccc2o1 [Compound 27, 4-({1-[3-(1,3-benzoxazol-4-yl)propyl]piperidin-4-yl}amino)-2H-chromen-2-one]							inhibition at 200 µM (E. coli DNA gyrase; E. coli, n/a = not active): 61%; inhibition at 200 µM (E. coli Topoisomerase IV; [1]): 53%
O=c1oc2ccccc2c2[nH]c(CNC3CCN(c4nccc5ccc(F)cc45)CC3)nc12 [Compound 146, 2-({[1-(7-fluoroisoquinolin-1-yl)piperidin-4-yl]amino}methyl)[1]benzopyrano[3,4-d]imidazol-4(1H)-one]	91	100	93				
O=c1cc(CC(O)CCN2CCN(c3nccc4ccc(F)cc34)CC2)c2ccccc2o1 (stereo not drawn) [Compound 134, 4-{4-[4-(7-fluoroisoquinolin-1-yl)piperazin-1-yl]-2-hydroxybutyl}-2H-chromen-2-one]	87	78	71	2.8	2.5	0.81	
5-chloro-1,6-naphthyridine [Compound 65]							% inhibition DNA gyrase (E. coli DNA gyrase; [2]): 94%; IC50 (E. coli DNA gyrase; E. coli, concentration-response curve, eight half-log concentrations 0.1 to 300 μM, read-out: IC50 DNA gyrase): 40.6 µM; % inhibition Topo IV (E. coli Topoisomerase IV; [2]): 80%; IC50 (E. coli Topoisomerase IV; E. coli, concentration-response curve, eight half-log concentrations 0.1 to 300 μM, read-out: IC50 Topo IV): 29.3 µM; % inhibition DNA gyrase (S. aureus DNA gyrase; [3]): 80%; IC50 (S. aureus DNA gyrase; S. aureus, concentration-response curve, eight half-log concentrations 0.1 to 300 μM, read-out: IC50 DNA gyrase): 26.8 µM
NC(=O)C1CN(c2nccc3ccccc23)CCN1CCCNc1cc(=O)oc2ccccc12 (stereo not drawn) [Compound 89, 4-(isoquinolin-1-yl)-1-{3-[(2-oxo-2H-chromen-4-yl)amino]propyl}piperazine-2-carboxamide hydrochloride]	87	51		28	54		
O=c1cc(NC2CCN(CCCc3nccc4ccccc34)CC2)c2ccccc2o1 [Compound 29, 4-({1-[3-(isoquinolin-1-yl)propyl]piperidin-4-yl}amino)-2H-chromen-2-one]				6	10	20	inhibition at 200 µM (E. coli DNA gyrase; E. coli, n/a = not active): 92%; inhibition at 200 µM (E. coli Topoisomerase IV; [1]): 100%; inhibition at 200 µM (S. aureus DNA gyrase; S. aureus, conc. 200 μM, n/a = not active): 86%
O=c1cc(NCCCN2CCN(c3nccc4ccccc34)CC2CO)c2ccccc2o1 (stereo not drawn) [Compound 90, 4-({3-[2-(hydroxymethyl)-4-(isoquinolin-1-yl)piperazin-1-yl]-propyl}amino)-2H-chromen-2-one]	93	81	89	8.3	15.5	9.3	
O=c1cc(NCCCN2CCC(c3nccc4ccccc34)CC2)c2ccccc2o1 [Compound 109, 4-({3-[4-(isoquinolin-1-yl)piperidin-1-yl]propyl}amino)-2H-chromen-2-one]	100	72	100	5.1	5.6	20.7	
O=c1cc(NCCCN2CCN(c3nccc4ccc(Cl)cc34)CC2)c2ccccc2o1 [Compound 51, 4-({3-[4-(7-chloroisoquinolin-1-yl)piperazin-1-yl]propyl}amino)-2H-chromen-2-one]				0.9	2.4	4.5	inhibition at 100 µM (E. coli DNA gyrase; [2]): 100%; inhibition at 100 µM (E. coli Topoisomerase IV; E. coli, conc. 100 μM, n/a = not active, read-out: % inhibition Topo IV): 88%; inhibition at 100 µM (S. aureus DNA gyrase; [3]): 91%
